Several values for one entry are separate records, joined by “and”; a condition that tells them apart may be missing. Equal values may be shown once.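 1) Cells in 96-well plates. 2) Compound, 48 h, 5 concentrations. 3) Linear interpolation between surrounding doses. 4) Unreached endpoint = highest concentration. Here, GI50 denotes the concentration required for 50% inhibition of growth. At the TGI there is no net growth.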
Assays:
Assay in all cases: DTP human tumour cell line panel, 48 h
IGROV1 ovarian = test system: IGROV1 ovarian
HOP-92 NSCLC = test system: HOP-92 NSCLC
CAKI-1 renal = test system: CAKI-1 renal
SW-620 colon = test system: SW-620 colon
SF-268 CNS = test system: SF-268 CNS
SNB-19 CNS = test system: SNB-19 CNS
SR leukemia = test system: SR leukemia
MDA-MB-231 breast = test system: MDA-MB-231 breast
KM20L2 colon = test system: KM20L2 colon
M19-MEL melanoma = test system: M19-MEL melanoma

SMILES	TGI (IGROV1 ovarian) [µM]	TGI (HOP-92 NSCLC)	TGI (CAKI-1 renal)	TGI (SW-620 colon)	TGI (SF-268 CNS)	TGI (SNB-19 CNS)	TGI (SR leukemia)	TGI (MDA-MB-231 breast) [µM]	TGI (KM20L2 colon) [µM]	TGI (M19-MEL melanoma) [µM]	GI50 (IGROV1 ovarian) [µM]	GI50 (HOP-92 NSCLC) [µM]	GI50 (CAKI-1 renal) [µM]	GI50 (SW-620 colon) [µM]	GI50 (SF-268 CNS) [µM]	GI50 (SNB-19 CNS) [µM]	GI50 (SR leukemia) [µM]	GI50 (MDA-MB-231 breast) [µM]
CCN(C)c1nc(N(C)CC)c2nc(N(C)CC)nc(N(C)CC)c2n1	> 100	> 100 µM	> 100 µM	> 100 µM	> 100 µM	> 100 µM	> 100 µM	> 100										
CCc1ccccc1NC(=O)c1cccc([N+](=O)[O-])c1O	> 100	45.4 µM	> 100 µM	> 100 µM	> 100 µM	> 100 µM			93.3	82.4								
OC1(c2ccc(Cl)c(C(F)(F)F)c2)CCN(CCCC(c2ccc(F)cc2)c2ccc(F)cc2)CC1	2.05	1.17 µM	1.9 µM	1.43 µM	1.88 µM	3.86 µM	2 µM	1.52			0.975	0.448	0.922	0.76	0.894	1.13	0.831	0.795
COc1ccc2c(c1)c(-c1nc(-c3c[nH]c4ncccc34)cs1)cn2CCCN1CCOCC1	8.69	6.82 µM	4.67 µM	5.24 µM	10.3 µM	8.71 µM	7 µM	4.54			2.09	2.42	1.88	2.26	2.69	2.86	2.3	1.86
O=C1NC2=C(CCCCC/C2=N\O)C12CCCCCC2	> 100	> 100 µM	> 100 µM	> 100 µM	> 100 µM	> 100 µM	> 100 µM			> 100								
COC1N(C2CC(O)C(CO)O2)C(=O)NC(=O)C1(F)Br (stereo unspecified)	> 100	43.8 µM and > 100 µM	50 µM and > 100 µM	50 µM and > 100 µM	50 µM and > 100 µM	50 µM and > 100 µM	50 µM and > 100 µM	> 100	50		> 50	13.2	24.9	27.7	18.2	26.6	25.1	
CCCCCOc1ccc(/C=N/Nc2cc(C)nc3ccc(Cl)cc23)cc1	3.6	2.96 µM	3.03 µM	3.53 µM	4.46 µM	3.41 µM	1.73 µM	3.23			1.91	1.47	1.64	1.73	2.23	1.87	0.369	1.71
COc1cc2oc(-c3ccc(O)cc3)cc(=O)c2c(O)c1C1OC(CO)C(O)C(O)C1O (stereo unspecified)	> 100		> 100 µM	> 100 µM	> 100 µM	> 100 µM	> 100 µM		> 100	> 100								
CN[C@@H](C)C(=O)N[C@H]1CN(S(=O)(=O)c2cccc(S(=O)(=O)N3CC[C@H]4CC[C@@H](C(=O)NC(c5ccccc5)c5ccccc5)N4C(=O)[C@@H](NC(=O)[C@H](C)NC)C3)c2)CC[C@H]2CC[C@@H](C(=O)NC(c3ccccc3)c3ccccc3)N2C1=O	44.5	27.4 µM	> 100 µM	> 100 µM	47.8 µM	43.6 µM	> 100 µM				21	7.71	58.4	31.7	20.9	21.2	1.95	< 0.0157

From PubChem BioAssay (NCI)
